Measurements as given in ChEMBL document CHEMBL5442175, “EUbOPEN Chemogenomics Library - PDSP Secondary Binding” (2024).
Counter-ions that a name gives are not always drawn.

Experiments:
[1] = biological target: Sigma non-opioid intracellular receptor 1 (Homo sapiens, UniProt Q99720); experiment: (§1) PDSP Secondary Binding target: SIGMAR1 - Compounds are tested at 10 uM concentration, plate are incubated at room temperature in the dark for 90 minutes. Reaction are stopped by vacuum filtration onto 0.3% polyethyleneimine soaked filter mats using Filtermate harvester. Scintillation cocktail is then melted onto microwave-dried filters on a hot plate and the radio activity is counted in Microbia counter.
Sigma non-opioid intracellular receptor 1, sequence (Q99720 whole entry): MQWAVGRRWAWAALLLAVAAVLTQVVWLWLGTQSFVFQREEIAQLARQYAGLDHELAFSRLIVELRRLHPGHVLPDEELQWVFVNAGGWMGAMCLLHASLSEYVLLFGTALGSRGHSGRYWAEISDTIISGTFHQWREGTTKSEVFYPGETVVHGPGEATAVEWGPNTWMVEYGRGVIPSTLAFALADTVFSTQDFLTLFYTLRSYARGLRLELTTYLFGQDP

[2] = biological target: 5-hydroxytryptamine receptor 2B (Homo sapiens, UniProt P41595); experiment: as §1, with “HTR2B” for “SIGMAR1”
5-hydroxytryptamine receptor 2B, sequence (P41595 whole entry): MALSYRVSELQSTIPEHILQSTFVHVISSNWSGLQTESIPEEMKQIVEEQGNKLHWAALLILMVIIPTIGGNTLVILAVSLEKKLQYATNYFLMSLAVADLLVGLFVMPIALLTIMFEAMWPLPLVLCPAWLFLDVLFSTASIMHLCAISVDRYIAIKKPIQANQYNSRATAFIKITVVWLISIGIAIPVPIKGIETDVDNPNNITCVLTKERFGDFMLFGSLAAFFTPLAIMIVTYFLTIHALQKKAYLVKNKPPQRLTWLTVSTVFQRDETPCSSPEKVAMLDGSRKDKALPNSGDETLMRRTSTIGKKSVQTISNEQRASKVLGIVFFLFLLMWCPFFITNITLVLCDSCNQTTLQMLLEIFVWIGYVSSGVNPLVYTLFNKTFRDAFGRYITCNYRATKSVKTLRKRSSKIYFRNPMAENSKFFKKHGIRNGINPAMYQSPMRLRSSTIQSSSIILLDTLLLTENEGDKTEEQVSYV

[3] = biological target: 5-hydroxytryptamine receptor 6 (Homo sapiens, UniProt P50406); experiment: as §1, with “HTR6” for “SIGMAR1”
5-hydroxytryptamine receptor 6, sequence (P50406 whole entry): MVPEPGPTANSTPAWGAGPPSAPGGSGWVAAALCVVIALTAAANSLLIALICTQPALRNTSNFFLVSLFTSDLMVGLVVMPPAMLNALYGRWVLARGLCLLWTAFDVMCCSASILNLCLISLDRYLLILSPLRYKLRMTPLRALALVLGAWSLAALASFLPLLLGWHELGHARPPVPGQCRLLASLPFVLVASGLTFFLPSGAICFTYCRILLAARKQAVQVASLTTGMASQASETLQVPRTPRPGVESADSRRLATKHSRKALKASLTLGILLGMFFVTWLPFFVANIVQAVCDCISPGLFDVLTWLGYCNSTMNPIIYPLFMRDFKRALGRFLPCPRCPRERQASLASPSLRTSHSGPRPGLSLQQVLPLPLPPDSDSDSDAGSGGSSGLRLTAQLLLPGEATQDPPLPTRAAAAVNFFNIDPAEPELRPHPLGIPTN

[4] = biological target: T1, Muscarinic acetylcholine receptor M2 (Homo sapiens, UniProt P08172); experiment: as §1, with “CHRM2” for “SIGMAR1”
T1 sequence (P08172 whole entry): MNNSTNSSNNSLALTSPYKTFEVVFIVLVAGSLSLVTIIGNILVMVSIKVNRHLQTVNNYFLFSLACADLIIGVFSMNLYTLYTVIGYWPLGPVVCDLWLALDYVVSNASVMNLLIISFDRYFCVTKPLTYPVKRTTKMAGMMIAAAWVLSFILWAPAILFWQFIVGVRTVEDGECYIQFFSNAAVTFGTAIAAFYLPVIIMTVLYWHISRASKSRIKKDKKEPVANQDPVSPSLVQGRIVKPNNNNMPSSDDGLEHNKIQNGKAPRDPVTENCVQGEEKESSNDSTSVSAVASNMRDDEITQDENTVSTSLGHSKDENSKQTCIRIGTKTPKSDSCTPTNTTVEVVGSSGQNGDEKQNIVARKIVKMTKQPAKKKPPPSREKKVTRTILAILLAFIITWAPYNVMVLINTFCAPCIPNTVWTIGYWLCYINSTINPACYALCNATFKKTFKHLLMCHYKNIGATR

D(2) dopamine receptor = D(2) dopamine receptor (Homo sapiens, UniProt P14416); experiment: as §1, with “DRD2” for “SIGMAR1”
D(2) dopamine receptor, sequence (P14416 whole entry): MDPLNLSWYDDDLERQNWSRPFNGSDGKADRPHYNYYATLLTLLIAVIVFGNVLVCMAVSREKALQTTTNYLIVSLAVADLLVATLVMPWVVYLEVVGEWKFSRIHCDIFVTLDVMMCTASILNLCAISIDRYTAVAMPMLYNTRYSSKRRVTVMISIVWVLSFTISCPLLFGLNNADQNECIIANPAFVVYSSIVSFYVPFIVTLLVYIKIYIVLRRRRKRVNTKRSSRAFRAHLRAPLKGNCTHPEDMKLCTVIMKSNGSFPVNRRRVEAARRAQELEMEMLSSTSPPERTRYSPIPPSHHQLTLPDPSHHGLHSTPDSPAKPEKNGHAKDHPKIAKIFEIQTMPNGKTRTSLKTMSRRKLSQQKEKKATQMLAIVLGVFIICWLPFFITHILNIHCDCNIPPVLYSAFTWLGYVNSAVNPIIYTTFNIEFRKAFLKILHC

[5] = biological target: 5-hydroxytryptamine receptor 2A (Homo sapiens, UniProt P28223); experiment: as §1, with “HTR2A” for “SIGMAR1”
5-hydroxytryptamine receptor 2A, sequence (P28223 whole entry): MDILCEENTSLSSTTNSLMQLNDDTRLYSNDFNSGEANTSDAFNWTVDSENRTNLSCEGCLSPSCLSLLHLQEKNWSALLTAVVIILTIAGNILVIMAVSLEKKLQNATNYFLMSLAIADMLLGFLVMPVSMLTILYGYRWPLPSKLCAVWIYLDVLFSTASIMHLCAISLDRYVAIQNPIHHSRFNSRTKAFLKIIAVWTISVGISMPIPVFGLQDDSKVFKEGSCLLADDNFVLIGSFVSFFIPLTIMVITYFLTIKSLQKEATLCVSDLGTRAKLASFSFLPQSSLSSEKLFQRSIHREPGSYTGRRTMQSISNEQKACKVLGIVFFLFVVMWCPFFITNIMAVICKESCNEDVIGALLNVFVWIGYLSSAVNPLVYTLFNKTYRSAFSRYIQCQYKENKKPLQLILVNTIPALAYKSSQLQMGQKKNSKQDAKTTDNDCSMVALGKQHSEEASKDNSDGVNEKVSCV

[6] = biological target: Beta-2 adrenergic receptor (Homo sapiens, UniProt P07550); experiment: as §1, with “ADRB2” for “SIGMAR1”
Beta-2 adrenergic receptor, sequence (P07550 whole entry): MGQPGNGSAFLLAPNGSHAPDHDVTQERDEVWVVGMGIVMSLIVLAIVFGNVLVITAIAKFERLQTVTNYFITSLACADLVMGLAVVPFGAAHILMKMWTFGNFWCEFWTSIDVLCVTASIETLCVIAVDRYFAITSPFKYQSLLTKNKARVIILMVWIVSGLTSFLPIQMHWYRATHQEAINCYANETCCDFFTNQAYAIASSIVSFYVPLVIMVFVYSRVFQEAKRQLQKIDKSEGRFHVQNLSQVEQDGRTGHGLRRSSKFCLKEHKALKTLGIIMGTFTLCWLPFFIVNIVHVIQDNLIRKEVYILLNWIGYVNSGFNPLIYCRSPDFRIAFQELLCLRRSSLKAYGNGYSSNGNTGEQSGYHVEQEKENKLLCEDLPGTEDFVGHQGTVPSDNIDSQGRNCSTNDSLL

D(3) dopamine receptor = D(3) dopamine receptor (Homo sapiens, UniProt P35462); experiment: as §1, with “DRD3” for “SIGMAR1”
D(3) dopamine receptor, sequence (P35462 whole entry): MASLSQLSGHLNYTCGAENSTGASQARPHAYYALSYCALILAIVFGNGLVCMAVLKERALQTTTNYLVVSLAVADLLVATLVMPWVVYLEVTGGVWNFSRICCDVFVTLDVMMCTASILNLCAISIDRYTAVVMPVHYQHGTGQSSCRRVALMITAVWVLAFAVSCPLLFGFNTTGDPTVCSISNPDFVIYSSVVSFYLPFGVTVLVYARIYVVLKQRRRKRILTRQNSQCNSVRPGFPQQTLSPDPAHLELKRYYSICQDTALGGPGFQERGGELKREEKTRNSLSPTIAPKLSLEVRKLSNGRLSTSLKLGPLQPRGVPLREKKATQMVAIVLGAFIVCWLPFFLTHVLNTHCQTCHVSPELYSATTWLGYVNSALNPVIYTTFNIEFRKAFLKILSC

[7] = biological target: Kappa-type opioid receptor (Homo sapiens, UniProt P41145); experiment: as §1, with “OPRK1” for “SIGMAR1”
Kappa-type opioid receptor, sequence (P41145 whole entry): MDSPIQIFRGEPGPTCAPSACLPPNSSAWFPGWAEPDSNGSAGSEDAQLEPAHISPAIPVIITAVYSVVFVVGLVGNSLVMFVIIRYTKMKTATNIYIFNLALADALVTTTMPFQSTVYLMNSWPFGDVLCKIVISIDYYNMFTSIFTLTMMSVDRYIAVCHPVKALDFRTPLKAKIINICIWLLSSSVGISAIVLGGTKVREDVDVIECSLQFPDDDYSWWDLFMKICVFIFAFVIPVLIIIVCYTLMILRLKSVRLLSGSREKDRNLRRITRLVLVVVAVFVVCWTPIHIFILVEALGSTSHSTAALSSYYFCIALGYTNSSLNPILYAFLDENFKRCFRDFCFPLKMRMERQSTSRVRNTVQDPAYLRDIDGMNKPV

Translocator protein = Translocator protein (Homo sapiens, UniProt P30536); experiment: as §1, with “TSPO” for “SIGMAR1”
[8] = biological target: T2, Muscarinic acetylcholine receptor M5 (Homo sapiens, UniProt P08912); experiment: as §1, with “CHRM5” for “SIGMAR1”
T2 sequence (P08912 whole entry): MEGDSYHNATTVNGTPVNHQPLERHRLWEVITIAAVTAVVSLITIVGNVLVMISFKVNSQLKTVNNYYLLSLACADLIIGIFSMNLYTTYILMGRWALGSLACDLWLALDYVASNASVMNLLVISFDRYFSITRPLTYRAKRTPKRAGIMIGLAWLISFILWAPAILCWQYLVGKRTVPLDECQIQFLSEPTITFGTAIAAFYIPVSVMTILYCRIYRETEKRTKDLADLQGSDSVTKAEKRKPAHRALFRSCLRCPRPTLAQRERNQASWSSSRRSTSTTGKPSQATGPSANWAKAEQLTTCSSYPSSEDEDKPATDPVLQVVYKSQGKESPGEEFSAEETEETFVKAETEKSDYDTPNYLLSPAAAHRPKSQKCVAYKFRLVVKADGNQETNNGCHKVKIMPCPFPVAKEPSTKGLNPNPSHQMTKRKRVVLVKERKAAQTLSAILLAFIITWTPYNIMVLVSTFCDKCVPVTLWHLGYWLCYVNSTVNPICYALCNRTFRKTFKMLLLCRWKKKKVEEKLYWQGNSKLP

[9] = biological target: Muscarinic acetylcholine receptor M3 (Homo sapiens, UniProt P20309); experiment: as §1, with “CHRM3” for “SIGMAR1”
Muscarinic acetylcholine receptor M3, sequence (P20309 whole entry): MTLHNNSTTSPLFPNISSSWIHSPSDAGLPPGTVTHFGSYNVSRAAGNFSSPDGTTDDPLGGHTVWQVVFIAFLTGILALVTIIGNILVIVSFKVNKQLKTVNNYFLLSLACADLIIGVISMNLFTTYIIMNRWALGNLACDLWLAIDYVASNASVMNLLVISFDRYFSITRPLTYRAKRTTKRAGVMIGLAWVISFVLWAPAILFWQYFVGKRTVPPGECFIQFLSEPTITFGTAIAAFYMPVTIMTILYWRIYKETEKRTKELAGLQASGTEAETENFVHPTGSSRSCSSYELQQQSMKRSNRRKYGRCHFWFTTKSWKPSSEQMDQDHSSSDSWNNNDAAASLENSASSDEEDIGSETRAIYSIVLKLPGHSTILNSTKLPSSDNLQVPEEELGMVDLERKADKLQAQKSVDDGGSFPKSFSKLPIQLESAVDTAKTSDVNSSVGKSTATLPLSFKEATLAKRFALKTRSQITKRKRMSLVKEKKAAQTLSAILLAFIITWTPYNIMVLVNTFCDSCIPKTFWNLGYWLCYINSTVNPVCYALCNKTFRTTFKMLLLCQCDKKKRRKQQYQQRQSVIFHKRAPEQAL

[10] = biological target: T3, Muscarinic acetylcholine receptor M4 (Homo sapiens, UniProt P08173); experiment: as §1, with “CHRM4” for “SIGMAR1”
T3 sequence (P08173 whole entry): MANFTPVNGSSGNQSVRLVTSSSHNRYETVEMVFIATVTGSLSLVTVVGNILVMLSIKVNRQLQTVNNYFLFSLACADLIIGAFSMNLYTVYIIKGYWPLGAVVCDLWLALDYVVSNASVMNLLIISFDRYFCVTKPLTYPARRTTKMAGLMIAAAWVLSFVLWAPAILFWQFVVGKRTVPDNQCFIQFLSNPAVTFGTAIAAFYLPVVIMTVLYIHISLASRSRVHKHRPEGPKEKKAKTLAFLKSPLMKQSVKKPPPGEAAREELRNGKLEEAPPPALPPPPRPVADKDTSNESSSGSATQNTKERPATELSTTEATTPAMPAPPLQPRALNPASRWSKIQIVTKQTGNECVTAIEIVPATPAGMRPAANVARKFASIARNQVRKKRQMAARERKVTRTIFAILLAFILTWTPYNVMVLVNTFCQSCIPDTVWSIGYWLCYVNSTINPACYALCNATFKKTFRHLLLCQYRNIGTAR

D(1B) dopamine receptor = D(1B) dopamine receptor (Homo sapiens, UniProt P21918); experiment: as §1, with “DRD5” for “SIGMAR1”
D(1B) dopamine receptor, sequence (P21918 whole entry): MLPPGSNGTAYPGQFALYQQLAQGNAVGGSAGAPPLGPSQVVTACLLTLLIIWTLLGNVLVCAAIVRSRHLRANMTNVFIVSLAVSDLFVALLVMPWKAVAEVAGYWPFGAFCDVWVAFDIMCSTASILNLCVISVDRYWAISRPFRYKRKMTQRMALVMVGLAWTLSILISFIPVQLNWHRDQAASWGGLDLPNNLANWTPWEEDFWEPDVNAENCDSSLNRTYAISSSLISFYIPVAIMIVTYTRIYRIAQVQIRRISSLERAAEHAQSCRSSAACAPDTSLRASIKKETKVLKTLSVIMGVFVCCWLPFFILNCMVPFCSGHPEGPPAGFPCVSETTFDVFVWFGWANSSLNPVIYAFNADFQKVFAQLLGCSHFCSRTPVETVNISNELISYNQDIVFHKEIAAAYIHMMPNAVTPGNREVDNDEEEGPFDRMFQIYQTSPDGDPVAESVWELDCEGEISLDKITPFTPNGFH

[11] = biological target: Sigma intracellular receptor 2 (Homo sapiens, UniProt Q5BJF2); experiment: as §1, with “TMEM97” for “SIGMAR1”
Sigma intracellular receptor 2, sequence (Q5BJF2 whole entry): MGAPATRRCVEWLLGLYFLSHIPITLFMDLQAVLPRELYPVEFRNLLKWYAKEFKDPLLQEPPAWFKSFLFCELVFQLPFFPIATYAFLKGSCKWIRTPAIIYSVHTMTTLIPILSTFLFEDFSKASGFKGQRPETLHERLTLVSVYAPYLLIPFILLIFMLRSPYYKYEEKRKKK

D(1A) dopamine receptor = D(1A) dopamine receptor (Homo sapiens, UniProt P21728); experiment: as §1, with “DRD1” for “SIGMAR1”
D(1A) dopamine receptor, sequence (P21728 whole entry): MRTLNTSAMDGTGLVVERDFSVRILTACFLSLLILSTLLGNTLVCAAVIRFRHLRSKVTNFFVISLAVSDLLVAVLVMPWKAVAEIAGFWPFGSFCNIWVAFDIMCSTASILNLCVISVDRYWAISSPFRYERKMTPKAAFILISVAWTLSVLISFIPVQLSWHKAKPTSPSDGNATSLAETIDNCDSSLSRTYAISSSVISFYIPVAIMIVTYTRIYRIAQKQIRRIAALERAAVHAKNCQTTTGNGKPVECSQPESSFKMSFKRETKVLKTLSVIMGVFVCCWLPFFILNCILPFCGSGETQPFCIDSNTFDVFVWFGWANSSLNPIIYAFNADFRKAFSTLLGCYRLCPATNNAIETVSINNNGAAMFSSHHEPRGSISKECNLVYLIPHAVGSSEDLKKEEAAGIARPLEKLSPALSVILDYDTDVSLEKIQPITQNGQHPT

[12] = biological target: T4, Muscarinic acetylcholine receptor M1 (Homo sapiens, UniProt P11229); experiment: as §1, with “CHRM1” for “SIGMAR1”
T4 sequence (P11229 whole entry): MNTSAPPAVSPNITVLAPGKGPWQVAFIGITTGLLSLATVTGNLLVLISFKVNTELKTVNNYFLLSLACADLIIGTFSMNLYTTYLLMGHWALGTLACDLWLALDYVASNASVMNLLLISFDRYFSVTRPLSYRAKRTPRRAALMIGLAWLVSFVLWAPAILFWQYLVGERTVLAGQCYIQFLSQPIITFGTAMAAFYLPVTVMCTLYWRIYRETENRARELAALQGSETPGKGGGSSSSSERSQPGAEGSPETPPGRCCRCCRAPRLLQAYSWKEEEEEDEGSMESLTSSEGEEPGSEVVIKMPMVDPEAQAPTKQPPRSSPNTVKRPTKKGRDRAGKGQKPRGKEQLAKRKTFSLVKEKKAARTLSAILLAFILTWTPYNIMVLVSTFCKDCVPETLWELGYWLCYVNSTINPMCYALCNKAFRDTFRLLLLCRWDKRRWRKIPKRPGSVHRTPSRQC

[13] = biological target: 5-hydroxytryptamine receptor 1B (Homo sapiens, UniProt P28222); experiment: as §1, with “HTR1B” for “SIGMAR1”
[14] = biological target: 5-hydroxytryptamine receptor 7 (Homo sapiens, UniProt P34969); experiment: as §1, with “HTR7” for “SIGMAR1”
[15] = biological target: T5, Alpha-2A adrenergic receptor (Homo sapiens, UniProt P08913); experiment: as §1, with “ADRA2A” for “SIGMAR1”
T5 sequence (P08913 whole entry): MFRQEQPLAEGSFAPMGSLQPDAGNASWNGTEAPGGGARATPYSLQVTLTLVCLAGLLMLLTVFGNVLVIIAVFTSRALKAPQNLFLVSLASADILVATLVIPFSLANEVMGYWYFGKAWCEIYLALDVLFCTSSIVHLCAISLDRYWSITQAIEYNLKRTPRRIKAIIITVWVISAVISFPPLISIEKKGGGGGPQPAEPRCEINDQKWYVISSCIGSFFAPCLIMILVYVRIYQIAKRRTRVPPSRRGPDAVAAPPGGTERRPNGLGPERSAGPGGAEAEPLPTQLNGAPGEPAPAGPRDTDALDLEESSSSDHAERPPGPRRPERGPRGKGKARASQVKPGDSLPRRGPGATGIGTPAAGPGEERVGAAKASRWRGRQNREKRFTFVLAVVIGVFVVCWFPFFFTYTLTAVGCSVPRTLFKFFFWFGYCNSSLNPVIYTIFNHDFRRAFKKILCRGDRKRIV

[16] = biological target: T6, 5-hydroxytryptamine receptor 3A (Homo sapiens, UniProt P46098); experiment: as §1, with “HTR3A” for “SIGMAR1”
T6 sequence (P46098 whole entry): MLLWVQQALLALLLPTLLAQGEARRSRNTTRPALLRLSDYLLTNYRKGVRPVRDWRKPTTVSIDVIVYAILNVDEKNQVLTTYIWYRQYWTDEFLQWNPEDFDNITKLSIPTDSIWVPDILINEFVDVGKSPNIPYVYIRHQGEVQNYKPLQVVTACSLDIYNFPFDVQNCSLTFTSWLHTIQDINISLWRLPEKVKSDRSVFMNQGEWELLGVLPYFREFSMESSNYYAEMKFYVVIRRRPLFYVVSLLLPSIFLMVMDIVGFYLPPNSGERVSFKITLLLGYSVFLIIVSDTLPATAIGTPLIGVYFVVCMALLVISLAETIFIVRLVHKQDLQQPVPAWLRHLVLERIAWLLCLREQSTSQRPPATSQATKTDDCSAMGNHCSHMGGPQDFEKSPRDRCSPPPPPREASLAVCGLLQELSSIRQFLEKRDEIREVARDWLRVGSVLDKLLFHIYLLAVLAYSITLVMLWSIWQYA

Cc1cc(NC(=O)Nc2ccc(N(C)C)cc2)c2cc(F)cc(F)c2n1
Ki [1]: 5380 nM | Ki [2]: 1700 nM | Ki [3]: > 10000 nM | Ki [4]: > 10000 nM | Ki (D(2) dopamine receptor): 9770 nM

CC[C@@H]1CN2C(=O)N(C)c3nc(-c4ccccc4)[nH]c3C2=N1
Ki [1]: 668 nM | Ki [5]: 9750 nM | Ki [6]: > 10000 nM

O=C(O)C1CN(Cc2ccc(-c3nc4cc(Cc5ccccc5F)ccc4s3)c(F)c2)C1
Ki (D(3) dopamine receptor): 1420 nM | Ki [6]: > 10000 nM

Cc1nc(C(=O)N2CCC[C@H]2Cc2nnc(-c3ccccc3)o2)c(-c2ccccc2F)s1
Ki [7]: 704 nM | Ki [2]: 3050 nM | Ki (Translocator protein): 789 nM | Ki [4]: > 10000 nM

CCOC(=O)c1cc(C#N)c(N2CCC(C(=O)NS(=O)(=O)Cc3ccccc3)CC2)nc1C
Ki (D(3) dopamine receptor): 2810 nM | Ki [4]: 9070 nM

CC(C)NC(=O)c1ccc(C#Cc2ccncc2)cn1
Ki [1]: 1100 nM | Ki [4]: 6750 nM

Cc1cc(C(=O)N2Cc3cnn(C)c3Nc3ccccc32)ccc1CNC(=O)N1CCC[C@H]1C(=S)N1CCCN(C)CC1
Ki [8]: 467 nM | Ki [7]: 2050 nM | Ki (D(3) dopamine receptor): 912 nM | Ki [4]: 3440 nM | Ki [9]: 707 nM | Ki [10]: 249 nM

CCN(CC)CCCCC1CCN(CC(=O)N2c3ccccc3C(=O)Nc3cccnc32)CC1
Ki [8]: 944 nM | Ki (D(1B) dopamine receptor): 1850 nM | Ki [11]: 1310 nM | Ki (D(1A) dopamine receptor): 740 nM | Ki [12]: 258 nM | Ki [9]: 152 nM | Ki [10]: 13.6 nM

CN1CCC(=C2c3ccccc3CC(=O)c3sccc32)CC1 [KETOTIFEN FUMARATE]
Ki [8]: 98.5 nM | Ki (D(1B) dopamine receptor): 2660 nM | Ki [13]: 1750 nM | Ki [14]: 407 nM | Ki [11]: 366 nM | Ki [15]: 1080 nM | Ki (D(1A) dopamine receptor): 299 nM | Ki (D(3) dopamine receptor): 717 nM | Ki [3]: 825 nM | Ki [4]: 244 nM | Ki [10]: 917 nM | Ki (D(2) dopamine receptor): 1730 nM | Ki [16]: 339 nM

Cc1cccc(NC(=O)N[C@@H]2N=C(c3ccccc3)c3ccccc3N(C)C2=O)c1 [L-365260]
Ki [2]: 6210 nM | Ki (D(1A) dopamine receptor): 3020 nM | Ki [5]: 2140 nM

CC(C)(C)NC[C@H](O)COc1nsnc1N1CCOCC1 [TIMOLOL]
Ki [1]: 391 nM | Ki (D(1A) dopamine receptor): 5280 nM
